Data on eleven compounds can be found in PubChem BioAssay AID743490 (The Scripps Research Institute Molecular Screening Center, 2014).

For orientation: IC50 means the concentration needed to halve the response being measured.

Calls of active or inactive are those of the source. The rule behind the calls is not given here.

Trace amine-associated receptor 1 (Homo sapiens), sequence (Q96RJ0 whole entry, looked up): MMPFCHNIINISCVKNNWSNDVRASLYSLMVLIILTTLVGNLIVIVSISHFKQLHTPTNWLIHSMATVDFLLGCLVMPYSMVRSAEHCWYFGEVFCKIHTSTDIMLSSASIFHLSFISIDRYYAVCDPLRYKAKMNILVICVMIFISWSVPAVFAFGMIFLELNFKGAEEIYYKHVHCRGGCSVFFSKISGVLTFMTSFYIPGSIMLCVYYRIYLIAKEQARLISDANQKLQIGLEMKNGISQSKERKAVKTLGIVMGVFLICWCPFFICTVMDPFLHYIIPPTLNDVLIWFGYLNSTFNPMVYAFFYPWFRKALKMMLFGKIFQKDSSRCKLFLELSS

The assay has as its target Trace amine-associated receptor 1 (Homo sapiens) (UniProt Q96RJ0). The assay is described as follows: loss of TAAR1 response after agonism – cell-based, fluorescence, human, MedChem round 1, counter-screen for TAAR1 agonist project, SAR follow-up (AID 743490). Particulars: hTAAR1 cells, desensitization of agonist response. For orientation: A counterscreen serves to expose hits that act by an unwanted route or on another target.
Regarding `O=C(CCN1C[C@@H](C(=O)O)[C@H](c2ccccc2)C1)NC1CCCC1`, the IC50 was > 29.9 µM (inactive).

As for `CC(CN1CCCC1Cc1ccccc1)C(=O)c1ccc2c(c1)OCCO2` (stereo unspecified), the IC50 is > 29.9 µM (inactive).

On to `O=C(CCN1C[C@@H](C(=O)O)[C@H](c2cccc(F)c2)C1)NC1CC1`, for which the IC50 is > 29.9 µM (inactive).

With `O=C(CCN1CCC(O)(c2ccccc2)C1)c1ccc2c(c1)OCCO2` (stereo unspecified), the IC50 was > 29.9 µM (inactive).

Consider `Cc1ccc(C(=O)CCN2CCC(c3ccccc3)C2)cc1` (stereo unspecified), for which the IC50 is > 29.9 µM (inactive).

On to `O=C(CCN1C[C@@H](C(=O)O)[C@H](c2ccccc2)C1)NCc1cccs1`, for which the IC50 was > 29.9 µM (inactive).

Turning to `NC(=O)CCN1C[C@H](c2ccccc2)[C@@H]2[C@H]1C1CCN2CC1`, the IC50 was > 29.9 µM (inactive).

Consider `CC(CN1CCC(c2ccccc2)C1)C(=O)c1ccc2c(c1)OCCO2` (stereo unspecified), for which the IC50 is > 29.9 µM (inactive).

On to `O=C(CCN1CCC(O)(c2ccc(F)cc2)C1)c1ccc2c(c1)OCCO2` (stereo unspecified), for which the IC50 was > 29.9 µM (inactive).

Consider `CC1CN(CCC(=O)c2ccc3c(c2)OCCO3)CC1c1ccccc1` (stereo unspecified), for which the IC50 is 4.4 µM.

For `O=C(CCN1CCC(c2ccccc2)C1)c1ccccc1` (stereo unspecified), the IC50 entry was “inactive”.
